Results: patent US20220356174A1, “PYRIDIN-2-ONE COMPOUNDS USEFUL AS SMARCA2 ANTAGONISTS” (Epizyme, Inc., priority 2018, published 2022)
Values belong to the compound of their own block, whether it stands above or below them.

Assays:
[1] = biological target: T1, FL-SMARCA2 (full-length human SMARCA2 isoform 1) (Homo sapiens, UniProt P51531); assay: SMARCA2 ATPase activity assay (ADP-Glo, chicken mononucleosome substrate); format: biochemical; details: ATPase assay, enzyme 5 nM, ATP 250 uM, chicken mononucleosome 10 nM, 30 min preincubation
T1 construct: FLAG tag (YKDDDDK) (C); made in house; host or cells: Sf21 insect cells (baculovirus, pFastBacI)

FL-SMARCA4 = FL-SMARCA4 (Homo sapiens, UniProt P51532); assay: SMARCA4 ATPase activity assay (ADP-Glo, chicken mononucleosome substrate); details: ATPase assay, enzyme 5 nM, ATP 250 uM, chicken mononucleosome 10 nM, 30 min preincubation
[2] = test system: various lung cancer cell lines; assay: Long term proliferation (LTP) assay in various cancer cell lines; format: cell-based
Experimental: The following cell lines were evaluated in an adherent cell line proliferation assay described herein: A549, HCC15, COV434, NCIH460, NCIH358, NCIH358-SMARCA2, NCIH358-SMARCA, NCIH1703, NCIH838, NCIH322, NCIH2122, NCIH2023, NCIH1355, NCIH1693, NCIH441, NCIH2030, NCIH1573, NCIH1373, NCIH1650, and NCIH1693. Plating densities for each cell line were determined based on growth curves (measured by ATP viability) and density over a 7 day timecourse. On the day before compound treatment, cells were plated in either 96-well plates in triplicate (for the day 0-7 timecourse) or 6-well plates (for replating on day 7 for the remainder of the timecourse). On Day 0, cells were either untreated, DMSO-treated, or treated with increasing concentrations of Compound 139 up to 10 μM. Plates were read on Day 0, Day 4, and Day 7 using a luminescent cell viability assay, with compound/media being replenished on Day 4. On Day 7, the 6-well plates were trypsinized, centrifuged, and resuspended in fresh media for counting by Vi-Cell. Cells from each treatment were replated at the original density in 96-well plates in triplicate. Cells were allowed to adhere to the plate overnight, and cells were treated as on Day 0. On Day 7, 11 and 14, plates were read using a luminescent cell viability assay, with compound/media being replenished on Day 11. Averages of triplicates were used to plot proliferation over the timecourse, and calculate IC50 values.
The following cell lines were evaluated in an adherent cell line proliferation assay described herein: NCIH522, CORL23, NCIH1693, NCIH1838, HCC1588, NCIH1435, NCIH2085, HCC827, NCIH1792, NCIH596, NCIH1568, NCIH1793, NCIH2126, CORL105, NCIH1573, NCIH1693, NCIH1395, HCC44, NCIH2126, NCIH520, NCIH1373, NCIH2172, NCIH23, HCT116, […], NCIH2347, NCIH2110, NCIH647, NCIH1437, AGS, KMS11, BT549, HUPT4, NCIH1048, TE10, and TE14. Cell densities were determined by growth curve as per protocol 1. For the proliferation assay, on Day 0, cells were either untreated, DMSO-treated, or treated with increasing concentrations of Compound 139 up to 10 μM. Plates were read on Day 0, Day 4, and Day 7 using luminescent cell viability assay. On Day 7, the 6-well plates were trypsinized, centrifuged, and resuspended in fresh media for counting by Vi-Cell. Cells from each treatment were replated at the original density in 96-well plates in triplicate. Cells were treated with compound as on Day 0. On Day 7, 11 and 14, plates were read using a luminescent cell viability assay. Averages of triplicates were used to plot proliferation over the timecourse, and calculate IC50 values.

[3] = Homo sapiens, A549, A549, SMARCA4 protein Absent, Lung NSCLC adenocarcinoma
[4] = Homo sapiens, COR-L105, CORL105, SMARCA4 protein Present, Lung NSCLC adenocarcinoma
[5] = Homo sapiens, HCT-116, HCT116, SMARCA4 protein Present, Colon Cancer
[6] = Homo sapiens, NCI-H358, NCIH358, SMARCA4 protein Present, Lung NSCLC bronchioloalveolar adenocarcinoma
[7] = Homo sapiens, NCI-H358, NCIH358 SMARCA4, SMARCA4 protein Absent, Lung NSCLC bronchioloalveolar adenocarcinoma
[8] = Homo sapiens, NCI-H460, NCIH460, SMARCA4 protein Present, Lung NSCLC large cell carcinoma
[9] = Homo sapiens, NCI-H522, NCIH522, SMARCA4 protein Absent, Lung NSCLC adenocarcinoma
[10] = Homo sapiens, NCI-H1299, NCIH1299, Lung NSCLC non small cell carcinoma
[11] = NCI-H1568, NCIH1568, SMARCA4 protein Absent, Lung NSCLC adenocarcinoma
[12] = NCIH2085, SMARCA4 protein Present, Lung NSCLC adenocarcinoma
[13] = RERFLCAI, SMARCA4 protein Absent, Lung NSCLC squamous cell carcinoma
[14] = HCC15, HCC15, SMARCA4 protein Absent, Lung NSCLC squamous cell carcinoma
[15] = Homo sapiens, COR-L23, CORL23, SMARCA4 protein Present, Lung NSCLC large cell carcinoma
[16] = Homo sapiens, Calu-6, CALU6, SMARCA4 protein Present, Lung NSCLC undifferentiated carcinoma
[17] = Homo sapiens, HCC44, HCC44, SMARCA4 protein Present, Lung NSCLC adenocarcinoma
[18] = Homo sapiens, NCI-H23, NCIH23, SMARCA4 protein Absent, Lung NSCLC non small cell carcinoma
[19] = Homo sapiens, NCI-H358, NCIH358 SMARCA2, SMARCA4 protein Present, Lung NSCLC bronchioloalveolar adenocarcinoma
[20] = Homo sapiens, NCI-H441, NCIH441, SMARCA4 protein Present, Lung NSCLC adenocarcinoma
[21] = Homo sapiens, NCI-H596, NCIH596, Lung NSCLC mixed adenosquamous carcinoma
[22] = Homo sapiens, NCI-H810, NCIH810, SMARCA4 protein Present, Lung NSCLC large cell carcinoma
[23] = Homo sapiens, NCI-H1437, NCIH1437, SMARCA4 protein Present, Lung NSCLC adenocarcinoma
[24] = Homo sapiens, NCI-H1563, NCIH1563, SMARCA4 protein Present, Lung NSCLC adenocarcinoma
[25] = Homo sapiens, NCI-H1573, NCIH1573, SMARCA4 protein Absent, Lung NSCLC adenocarcinoma
[26] = Homo sapiens, NCI-H1693, NCIH1693, SMARCA4 protein Absent, Lung NSCLC adenocarcinoma
[27] = Homo sapiens, NCI-H1975, NCIH1975, SMARCA4 protein Present, Lung NSCLC non small cell carcinoma
[28] = Homo sapiens, NCI-H2030, NCIH2030, SMARCA4 protein Absent, Lung NSCLC non small cell carcinoma
[29] = Homo sapiens, NCI-H2122, NCIH2122, SMARCA4 protein Present, Lung NSCLC adenocarcinoma
[30] = Homo sapiens, PANC-1, PANC1, Pancreatic Cancer ductal carcinoma
[31] = Homo sapiens, SW900, SW900, SMARCA4 protein Present, Lung NSCLC squamous cell carcinoma
[32] = Hs766T, Pancreatic Cancer ductal carcinoma

T1 sequence (P51531 with tags, fused parts or gaps): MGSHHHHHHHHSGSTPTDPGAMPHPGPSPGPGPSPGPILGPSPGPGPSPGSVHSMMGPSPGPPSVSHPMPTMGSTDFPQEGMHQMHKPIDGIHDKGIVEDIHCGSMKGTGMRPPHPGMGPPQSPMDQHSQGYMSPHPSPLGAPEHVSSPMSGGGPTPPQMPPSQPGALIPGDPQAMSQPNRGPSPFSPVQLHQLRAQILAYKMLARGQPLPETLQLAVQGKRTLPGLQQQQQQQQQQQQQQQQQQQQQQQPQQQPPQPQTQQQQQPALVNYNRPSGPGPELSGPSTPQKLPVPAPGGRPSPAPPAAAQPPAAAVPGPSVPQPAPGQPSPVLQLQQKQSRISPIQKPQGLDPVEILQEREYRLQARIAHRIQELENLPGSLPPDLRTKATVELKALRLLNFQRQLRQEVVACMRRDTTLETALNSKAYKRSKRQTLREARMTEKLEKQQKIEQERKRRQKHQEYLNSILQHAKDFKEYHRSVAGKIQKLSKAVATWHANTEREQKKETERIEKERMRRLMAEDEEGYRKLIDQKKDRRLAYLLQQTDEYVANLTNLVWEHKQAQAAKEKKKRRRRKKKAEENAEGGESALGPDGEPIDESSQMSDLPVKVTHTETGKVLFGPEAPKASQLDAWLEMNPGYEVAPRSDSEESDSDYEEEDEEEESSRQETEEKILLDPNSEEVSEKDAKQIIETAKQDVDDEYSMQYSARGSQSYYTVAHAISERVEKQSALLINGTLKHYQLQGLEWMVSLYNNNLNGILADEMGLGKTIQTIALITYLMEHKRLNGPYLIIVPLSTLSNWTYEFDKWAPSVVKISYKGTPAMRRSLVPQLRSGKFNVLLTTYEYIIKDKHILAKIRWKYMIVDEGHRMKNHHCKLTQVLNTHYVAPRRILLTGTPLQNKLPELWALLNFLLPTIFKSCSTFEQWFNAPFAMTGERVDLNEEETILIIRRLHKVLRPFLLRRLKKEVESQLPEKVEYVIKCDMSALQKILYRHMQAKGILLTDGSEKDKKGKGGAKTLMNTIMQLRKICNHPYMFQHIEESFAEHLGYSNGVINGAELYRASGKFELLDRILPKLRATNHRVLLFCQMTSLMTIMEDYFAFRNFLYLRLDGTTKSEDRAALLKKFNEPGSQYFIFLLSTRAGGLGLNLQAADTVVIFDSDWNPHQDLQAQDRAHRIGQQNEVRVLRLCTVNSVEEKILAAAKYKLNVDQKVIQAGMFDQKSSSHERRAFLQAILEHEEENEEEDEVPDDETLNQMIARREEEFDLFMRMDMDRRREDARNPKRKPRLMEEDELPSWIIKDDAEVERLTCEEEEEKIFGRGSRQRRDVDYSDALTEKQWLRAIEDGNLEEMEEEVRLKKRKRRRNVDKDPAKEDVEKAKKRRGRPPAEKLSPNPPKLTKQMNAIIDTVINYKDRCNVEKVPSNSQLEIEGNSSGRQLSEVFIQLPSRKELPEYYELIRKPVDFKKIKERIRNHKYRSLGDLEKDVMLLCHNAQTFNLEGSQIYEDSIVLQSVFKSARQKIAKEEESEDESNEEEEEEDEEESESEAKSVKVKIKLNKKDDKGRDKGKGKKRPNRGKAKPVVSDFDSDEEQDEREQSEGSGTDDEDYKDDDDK
Chain of FL-SMARCA4 (P51532 whole entry): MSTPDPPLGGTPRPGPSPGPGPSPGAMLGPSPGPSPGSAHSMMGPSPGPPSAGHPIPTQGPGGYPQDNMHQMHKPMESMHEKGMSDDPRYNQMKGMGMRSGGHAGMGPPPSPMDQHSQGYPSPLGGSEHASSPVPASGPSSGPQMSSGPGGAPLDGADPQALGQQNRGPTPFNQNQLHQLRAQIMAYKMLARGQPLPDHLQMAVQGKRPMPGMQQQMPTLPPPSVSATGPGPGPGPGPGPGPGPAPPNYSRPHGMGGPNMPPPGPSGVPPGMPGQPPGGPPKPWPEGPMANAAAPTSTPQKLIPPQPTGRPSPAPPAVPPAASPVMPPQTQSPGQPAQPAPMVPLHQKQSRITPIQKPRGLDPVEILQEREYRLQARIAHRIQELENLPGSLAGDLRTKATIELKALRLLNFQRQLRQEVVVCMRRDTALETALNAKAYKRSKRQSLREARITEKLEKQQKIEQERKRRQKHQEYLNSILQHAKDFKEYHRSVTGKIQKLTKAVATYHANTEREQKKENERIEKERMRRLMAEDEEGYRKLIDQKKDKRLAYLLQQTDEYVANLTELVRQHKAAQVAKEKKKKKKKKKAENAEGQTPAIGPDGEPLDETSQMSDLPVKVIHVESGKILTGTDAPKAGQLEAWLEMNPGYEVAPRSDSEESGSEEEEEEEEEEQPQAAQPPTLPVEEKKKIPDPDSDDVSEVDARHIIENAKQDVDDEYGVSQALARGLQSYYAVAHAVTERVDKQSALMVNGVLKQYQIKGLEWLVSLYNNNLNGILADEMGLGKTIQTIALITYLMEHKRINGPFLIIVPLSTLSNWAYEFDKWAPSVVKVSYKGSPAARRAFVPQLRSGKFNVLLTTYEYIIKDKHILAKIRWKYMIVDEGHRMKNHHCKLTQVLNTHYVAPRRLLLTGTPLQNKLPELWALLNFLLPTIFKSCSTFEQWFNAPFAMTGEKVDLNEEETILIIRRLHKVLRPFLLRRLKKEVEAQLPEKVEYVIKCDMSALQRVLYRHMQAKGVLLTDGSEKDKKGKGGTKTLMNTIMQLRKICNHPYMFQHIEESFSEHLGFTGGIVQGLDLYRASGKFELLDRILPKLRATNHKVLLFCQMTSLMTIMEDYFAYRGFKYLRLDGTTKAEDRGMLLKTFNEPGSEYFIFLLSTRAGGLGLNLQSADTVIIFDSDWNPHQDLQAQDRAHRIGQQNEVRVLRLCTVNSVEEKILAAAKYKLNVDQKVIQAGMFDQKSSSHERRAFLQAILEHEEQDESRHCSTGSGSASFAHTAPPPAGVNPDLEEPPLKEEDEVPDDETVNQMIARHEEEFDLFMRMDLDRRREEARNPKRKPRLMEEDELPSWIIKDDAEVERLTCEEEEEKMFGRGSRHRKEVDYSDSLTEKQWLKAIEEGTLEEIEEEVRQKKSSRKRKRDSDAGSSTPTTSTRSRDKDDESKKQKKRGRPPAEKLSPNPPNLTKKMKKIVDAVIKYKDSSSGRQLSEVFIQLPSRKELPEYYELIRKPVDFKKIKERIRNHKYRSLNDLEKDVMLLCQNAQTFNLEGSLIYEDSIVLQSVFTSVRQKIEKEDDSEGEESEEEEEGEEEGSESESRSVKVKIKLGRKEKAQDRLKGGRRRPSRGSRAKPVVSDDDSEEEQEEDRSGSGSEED

SMILES: N#Cc1cc(C(=O)Nc2cc(F)c(=O)n(CC(F)F)c2)sc1C(F)(F)F [Compound 82c, 4-cyano-N-[1-(2,2-difluoroethyl)-5-fluoro-6-oxopyridin-3-yl]-5-(trifluoromethyl)thiophene-2-carboxamide]
IC50 ([1]; Table 3c.1): 0.00988 µM | IC50 (FL-SMARCA4; FL-SMARCA4 IC>50, Table 3c.2): 0.0661 µM | IC50 [2, 3]: 0.259 µM | IC50 [2, 4]: 0.17 µM | IC50 [2, 5]: 0.142 µM | IC50 [2, 6]: 1.7 µM | IC50 [2, 7]: 0.383 µM | IC50 [2, 8]: 10 µM | IC50 [2, 9]: 9.7 µM | IC50 [2, 10]: 1.7 µM | IC50 ([2]; Homo sapiens, NCI-H1581, NCIH1581, SMARCA4 protein Absent, Lung NSCLC large cell carcinoma): 10 µM | IC50 [2, 11]: 10 µM | IC50 [2, 12]: 10 µM | IC50 [2, 13]: 0.026 µM

IC50 ([1]; Table 3.1): 0.0196 µM | IC50 (FL-SMARCA4; FL-SMARCA4 IC50, Table 3.2): 0.0541 µM | IC50 [2, 14]: 0.677 µM | IC50 ([2]; HCC1588, HCC1588, SMARCA4 protein Present, Lung NSCLC squamous cell carcinoma): 0.906 µM | IC50 [2, 3]: 0.316 µM | IC50 [2, 15]: 1.7 µM | IC50 [2, 4]: 0.095 µM | IC50 [2, 16]: 1.21 µM | IC50 [2, 17]: 1.27 µM | IC50 ([2]; Homo sapiens, HCC827, HCC827, SMARCA4 protein Present, Lung NSCLC adenocarcinoma (bronchioalveolar features)): 10 µM | IC50 [2, 5]: 0.169 µM | IC50 [2, 18]: 1.1 µM | IC50 [2, 6]: 10 µM | IC50 [2, 19]: 10 µM | IC50 [2, 7]: 0.347 µM | IC50 [2, 20]: 5.2 µM | IC50 [2, 8]: 10 µM | IC50 [2, 9]: 10 µM | IC50 [2, 21]: 8.8 µM | IC50 [2, 22]: 0.174 µM | IC50 ([2]; Homo sapiens, NCI-H838, NCIH838, SMARCA4 protein Present, Lung NSCLC adenocarcinoma): 10 µM | IC50 [2, 10]: 0.857 µM | IC50 ([2]; Homo sapiens, NCI-H1395, NCIH1395, SMARCA4 protein Present, Lung NSCLC adenocarcinoma): 10 µM | IC50 [2, 23]: 1.5 µM | IC50 [2, 24]: 2.3 µM | IC50 [2, 25]: 0.504 µM | IC50 ([2]; Homo sapiens, NCI-H1650, NCIH1650, SMARCA4 protein Present, Lung NSCLC bronchioalveolar carcinoma): 5 µM | IC50 [2, 26]: 0.101 µM | IC50 ([2]; Homo sapiens, NCI-H1792, NCIH1792, SMARCA4 protein Present, Lung NSCLC adenocarcinoma): 10 µM | IC50 ([2]; Homo sapiens, NCI-H1793, NCIH1793, SMARCA4 protein Present, Lung NSCLC adenocarcinoma): 0.89 µM | IC50 ([2]; Homo sapiens, NCI-H1838, NCIH1838, SMARCA4 protein Present, Lung NSCLC non-small cell lung cancer): 0.587 µM | IC50 [2, 27]: 10 µM | IC50 [2, 28]: 1.15 µM | IC50 [2, 29]: 2.8 µM | IC50 ([2]; Homo sapiens, NCI-H2126, NCIH2126, SMARCA4 protein Present, Lung NSCLC adenocarcinoma): 5.5 µM | IC50 ([2]; Homo sapiens, NCI-H2342, NCIH2342, SMARCA4 protein Present, Lung NSCLC non-small cell lung cancer): 2.5 µM | IC50 [2, 30]: 10 µM | IC50 [2, 31]: 10 µM | IC50 [2, 32]: 1 µM | IC50 ([2]; NCI-H1435, NCIH1435, SMARCA4 protein Present, Lung NSCLC adenocarcinoma): 0.443 µM | IC50 [2, 11]: 0.395 µM | IC50 [2, 12]: 0.314 µM | IC50 [2, 13]: 0.061 µM | sensitivity to inhibition of SMARCA2 (IC50): cell lines with loss or absence of SMARCA4 versus cell lines with SMARCA4 protein present ([2]; lung cancer cell lines of Table 5, FIG. 1): more sensitive
SMILES: N#Cc1sc(C(=O)Nc2cc(F)c(=O)n(CCF)c2)cc1Cl [Compound 139]

IC50 ([1]; Table 3.1): 0.0241 µM | IC50 (FL-SMARCA4; FL-SMARCA4 IC50, Table 3.2): 0.165 µM | IC50 ([2]; COV644, Ovarian Cancer): 5.6 µM | IC50 [2, 14]: 0.569 µM | IC50 [2, 3]: 0.142 µM | IC50 [2, 15]: 1.4 µM | IC50 [2, 4]: 0.715 µM | IC50 [2, 16]: 1.4 µM | IC50 ([2]; Homo sapiens, DLD-1, DLD1, SMARCA4 protein Present, Colon Cancer adenocarcinoma): 1.4 µM | IC50 [2, 17]: 3.3 µM | IC50 [2, 5]: 0.836 µM | IC50 ([2]; Homo sapiens, HT-1376, HT1376, Bladder Cancer transitional cell carcinoma): 0.385 µM | IC50 ([2]; Homo sapiens, MIA PaCa-2, MIAPACA2, Pancreatic Cancer ductal carcinoma): 0.871 µM | IC50 [2, 18]: 0.891 µM | IC50 [2, 6]: 10 µM | IC50 [2, 19]: 5.1 µM | IC50 [2, 7]: 0.312 µM | IC50 [2, 20]: 5 µM | IC50 [2, 8]: 10 µM | IC50 [2, 9]: 10 µM | IC50 [2, 21]: 10 µM | IC50 [2, 22]: 0.946 µM | IC50 [2, 10]: 0.548 µM | IC50 [2, 23]: 1.4 µM | IC50 [2, 24]: 1.1 µM | IC50 [2, 25]: 0.701 µM | IC50 [2, 26]: 0.202 µM | IC50 [2, 27]: 10 µM | IC50 [2, 28]: 1.1 µM | IC50 [2, 29]: 3.9 µM | IC50 [2, 30]: 0.223 µM | IC50 [2, 31]: 10 µM | IC50 [2, 32]: 10 µM | IC50 [2, 11]: 0.509 µM | IC50 ([2]; OV7, Ovarian Cancer): 0.154 µM | IC50 [2, 13]: 0.135 µM
SMILES: O=C(Nc1cc(F)c(=O)n(CC(F)F)c1)c1cc(Cl)c(C(F)(F)F)s1 [Compound 298, 4-Chloro-N-(1-(2,2-difluoroethyl)-5-fluoro-6-oxo-1,6-dihydropyridin-3-yl)-5-(trifluoromethyl)thiophene-2-carboxamide]
